# Measured values as given in US20130253048A1, “Pharmaceutical Composition for Promoting Osteogenesis Containing Axial-equatorial Aryl-oriented Furofuran-type Lignan, and Pharmaceutical Preparation, Functional Food Product, and Health Food Product Comprising Composition” (ERINA CO., INC., priority 2010, published 2013).
# Marks after values point to notes of the source that are not given here.
# Columns and labels:
# [1] = tested on: mouse monocyte macrophage type cells under RANKL stimulation; conditions: cited from earlier work
# [2] = tested on: ovariectomized mouse (OVX mouse); assay: Bone formation in ovariectomized mouse (OVX mouse), dosing after bone resorption induction period, femur pQCT; format: in vivo; conditions: for Bone strength (polar coordinates torsion strength): compared to Control OVX group; for Bone density of cancellous bone, relative value / Bone density of cortical bone, relative value / Bone density of the whole bones, relative value: 5M Sham = 100; for Bone density of cancellous bone / Bone density of cortical bone / Bone thickness of cortical bone / Cross section area of cortical bone / Perimeter of cortical bone adventitia / Perimeter of cortical bone lining membrane / Bone density of the whole bones: OVX mice, 3 months dosing after 2-month induction; for Bone density of the whole bones: right femur, pQCT
# Experimental: Four-week-old female Slc; ddy mice (Japan SLC, Inc.) were purchased, and they were divided into 8 groups without acclimate keeping (6 mice per group). They were anesthetized by using 50 mg/kg of pentobarbital to be ovariectomized (it is referred to as “OVX” herein below) or to have Sham operation (it is referred to as “Sham” herein below) under the anesthesia which is given by intraperitoneal administration of 50 mg/kg of Somnopentyl (pentobarbital sodium).
# From the second day of the ovariectomy (or Sham operation), each group was maintained under the condition of 12 hour light/dark cycle, 23±3 degree centigrade as the room temperature, and humidity 55±5% for 2 months as the bone resorption induction period. The animal bedding was exchanged twice a week and all fresh bedding was used at all times. CRF-1 (Oriental Yeast Co., Ltd.) as the feed and deionized water as drinking water were freely given.
# After two month period from the test start, the bone resorption induction period, the test substance were given to each group at the amount shown in the following Table 7 for 3 month.
# Ninety % of MeOH fraction (Shin-i) obtained in Example 1 and Fargesin (may refer to “Far” thereafter) were respectively dissolved into TD solution at the concentration shown in Table 7, and then they were administrated per os.
# Human PTH (1-34) (herein below, it is sometimes referred to as “hPTH (1-34)”) were dissolved in distilled water at the concentration of 80 μg/kg/day, and it was administrated subcutaneously.
# After 3 month from the administration start, the mice belonging to all of the groups were weighed. They were anesthetized by using diethylether, and were collected their blood from their hearts, and then they were died. Then, organs such as the uterus, the white adipose tissue (WAT), the brown adipose tissue (BAT), the liver, the spleen, and both left and right lower extremities were removed. The left and right lower extremities were separated into the femurs and the tibias, and they were stored in 70% EtOH under the room temperature.
# The muscles were removed from the obtained femur (right), and then its bone density and the like were measured by using pQCT employed in Example 1 under the following conditions.
# Recognition of contour (CONTMODE): 2 (auto search of ROI)
# Recognition method of cancellous bone: Surface & Area
# Ration of cancellous bone area to all of the cross section areas: 35%
# CORTMODE used in CORTBD: 1* * Voxels not larger than the standard value for distinguishing the cortical bone from the cancellous bone (threshold: threshold) were omitted. Each tissue weight was also measured.
# TH value used in CORTBD: 690
# Among the all data of cancellous bone density obtained from pQCT, both of the highest and the lowest data were deleted to obtain the Median. As to the other parameters were treated as the same as this, the graph was made with N=6. Statistical analysis was performed by using the Dennett's two-sided t test.
# [3] = Cell viability, MTT test in MC3T3-E1; format: cell-based; conditions: mouse, MC3T3-E1 cells (osteoblast-like cell line), MC3T3-E1, negative control = 100
# Experimental: MC3T3-E1 cells ((IAA) the Institution of Physical and Chemical Research), osteoblast-like cell line derived from the mouse fetus cranial bone cells, were inoculated into the 96 well plate at 4,000 cells/well. As a medium, the basal medium prepared in the Example 3 supplemented with fargesin at 2 to 80 μM was used. Pre-culture was performed by using the basal medium only under the conditions of 5% CO2 and 37 degree centigrade for 3 days. After that, the conditioned medium was changed to fresh medium with fargesin; the culture was performed under the conditions of 5% CO2 and 37 degree centigrade for 3 days. On the day 4 from the culture start, the conditioned medium was changed to the fresh medium; the culture was further performed under the conditions of 5% CO2 and 37 degree centigrade for 3 days. After the termination of the culture, the following MTT test, measurement of ALP activities, and the staining were performed.
# Cell viability was measured by using MTT test. MTT reagent was prepared by dissolving 50 mg of 3-(4,5-dimethyl-thiazol-2-yl)-2,5-diphenyl tetrazolium bromide in 10 ml of PBS (−). After the termination of the culture, the medium containing fargesin was partially removed from each well to adjust the solution volume to 100 μL. Ten μl of the MTT reagent was then added to each well to be reacted to give blue-violet color in the CO2 incubator.
# After the termination of the reaction, all medium was removed from each well, 100 μl of DMSO as a lysis solution was added to each well, and then the absorbance was measured at 570 nm to study the viability of live cells.
# TRACP5b = assay: Serum TRACP5b of OVX mice (bone metabolism marker); format: in vivo, mouse
# Experimental: All obtained blood from the heart under diethyl ether anesthesia at dissection was stored at 4 degree centigrade for 24 hours. Then, the blood was centrifuged at 3,000 rpm (4,000×g) for 15 minutes to separate the sera.
# According to the protocol of Mouse TRAP™ Assay (Immuno-diagnostic Systems Ltd, the United of Kingdom), TRACP5b in the obtained sera was determined.
# [4] = 40 mg administration group p.o.
smiles,measurement,setting,value
"COc1ccc([C@@H]2OC[C@H]3[C@@H]2CO[C@@H]3c2ccc3c(c2)OCO3)cc1OC [fargesin, Fargesin]",phosphorylation of p38 and I-κB by RANKL stimulation,[1]; RANKL stimulation,inhibits the phosphorylation
same,tartrate-resistant acid phosphatase activities,"[1]; mouse monocyte macrophage type cells under RANKL stimulation, or marrow monocytoid cells in culture",dose-dependently inhibits
same,Bone strength (polar coordinates torsion strength),[2]; 2 mg administration group p.o.,significantly increased
same,Bone strength (polar coordinates torsion strength),[2]; [4],significantly increased
same,"Bone density of cancellous bone, relative value",[2]; Far 2: 2 mg/kg/day p.o.,54.9
same,"Bone density of cortical bone, relative value",[2]; Far 2: 2 mg/kg/day p.o.,92.7
same,"Bone density of the whole bones, relative value",[2]; Far 2: 2 mg/kg/day p.o.,81.4
same,"Bone density of cancellous bone, relative value",[2]; Far 20: 20 mg/kg/day p.o.,58.5
same,"Bone density of cortical bone, relative value",[2]; Far 20: 20 mg/kg/day p.o.,92.9
same,"Bone density of the whole bones, relative value",[2]; Far 20: 20 mg/kg/day p.o.,83.1
same,"Bone density of cancellous bone, relative value",[2]; Far 40: 40 mg/kg/day p.o.,79.2
same,"Bone density of cortical bone, relative value",[2]; Far 40: 40 mg/kg/day p.o.,90.4
same,"Bone density of the whole bones, relative value",[2]; Far 40: 40 mg/kg/day p.o.,85.7
same,Bone density of cancellous bone,[2]; Far 2: 2 mg/kg/day p.o.,64.10 ± 25.48 mg/cm^2
same,Bone density of cortical bone,[2]; Far 2: 2 mg/kg/day p.o.,911.65 ± 30.15 mg/cm^2
same,Bone thickness of cortical bone,[2]; Far 2: 2 mg/kg/day p.o.,0.20 ± 0.03 mm
same,Cross section area of cortical bone,[2]; Far 2: 2 mg/kg/day p.o.,1.46 ± 0.23 mm^2
same,Perimeter of cortical bone adventitia,[2]; Far 2: 2 mg/kg/day p.o.,8.02 ± 0.26 mm
same,Perimeter of cortical bone lining membrane,[2]; Far 2: 2 mg/kg/day p.o.,6.79 ± 0.19 mm
same,Bone density of the whole bones,[2]; Far 2: 2 mg/kg/day p.o.,427.83 ± 36.00 mg/cm^2
same,Bone density of cancellous bone,[2]; Far 20: 20 mg/kg/day p.o.,68.22 ± 21.67 mg/cm^2
same,Bone density of cortical bone,[2]; Far 20: 20 mg/kg/day p.o.,914.57 ± 43.90 mg/cm^2
same,Bone thickness of cortical bone,[2]; Far 20: 20 mg/kg/day p.o.,0.20 ± 0.03 mm
same,Cross section area of cortical bone,[2]; Far 20: 20 mg/kg/day p.o.,1.48 ± 0.18 mm^2
same,Perimeter of cortical bone adventitia,[2]; Far 20: 20 mg/kg/day p.o.,8.04 ± 0.55 mm
same,Perimeter of cortical bone lining membrane,[2]; Far 20: 20 mg/kg/day p.o.,6.78 ± 0.68 mm
same,Bone density of the whole bones,[2]; Far 20: 20 mg/kg/day p.o.,437.00 ± 49.48 mg/cm^2
same,Bone density of cancellous bone,[2]; Far 40: 40 mg/kg/day p.o.,92.37 ± 41.29 mg/cm^2
same,Bone density of cortical bone,[2]; Far 40: 40 mg/kg/day p.o.,889.97 ± 23.31 mg/cm^2
same,Bone thickness of cortical bone,[2]; Far 40: 40 mg/kg/day p.o.,0.21 ± 0.02* mm
same,Cross section area of cortical bone,[2]; Far 40: 40 mg/kg/day p.o.,1.56 ± 0.19* mm^2
same,Perimeter of cortical bone adventitia,[2]; Far 40: 40 mg/kg/day p.o.,8.14 ± 0.39 mm
same,Perimeter of cortical bone lining membrane,[2]; Far 40: 40 mg/kg/day p.o.,6.83 ± 0.38 mm
same,Bone density of the whole bones,[2]; Far 40: 40 mg/kg/day p.o.,450.57 ± 33.72 mg/cm^2
same,"viability at 6 days, 2 µM",[3]; 2 μM,106 ± 3.2%
same,"viability at 6 days, 6 µM",[3]; 6 μM,105 ± 3.3%
same,"viability at 6 days, 20 µM",[3]; 20 μM,100 ± 3.4%
same,"viability at 6 days, 60 µM",[3]; 60 μM,89.1 ± 3.9%
same,"viability at 6 days, 80 µM",[3]; 80 μM,92.6 ± 3.7%
same,level of TRACP5b in the sera,TRACP5b; [4],significantly decreased
same,level of TRACP5b in the sera,"TRACP5b; 2, 20, 40 mg/kg/day p.o.",dose-dependently decreased
